According to ChEMBL document CHEMBL4393655, “Evaluation of synthetic substituted 1,2-dioxanes as novel agents against human leishmaniasis” (Eur J Med Chem, 2019):

Columns and labels:
Leishmania infantum [1] = test: Antileishmanial activity against amastigote stage of Leishmania infantum MHOM/PT/88/IMT151 infected in human THP-1 cells assessed as parasite growth inhibition after 48 hrs by microscopic analysis; format: functional, organism-based; details: MHOM/PT/88/IMT151, THP-1, 48 h
Leishmania infantum [2] = test: Antileishmanial activity against promastigote stage of Leishmania infantum MHOM/PT/88/IMT151 as parasite growth inhibition after 48 hrs by MTT assay; format: functional, organism-based; details: MHOM/PT/88/IMT151, 48 h
Leishmania donovani [3] = test: Antileishmanial activity against late log/stationary phase of promastigote stage of Leishmania donovani MHOM/NP/02/BPK282/0c14 assessed as parasite growth inhibition after 72 hrs by plate reader based Alamar blue assay; format: functional, organism-based
Leishmania donovani [4] = test: Antileishmanial activity against promastigote stage of Leishmania donovani MHOM/ET/67/HU3 assessed as parasite growth inhibition after 3 days by MTT assay; format: functional, organism-based; details: MHOM/ET/67/HU3, 72 h
[5] = Solubility of the compound; format: physicochemical
Leishmania major = test: Antileishmanial activity against late log/stationary phase of promastigote stage of Leishmania major MHOM/SU/73/5-ASKH assessed as parasite growth inhibition after 72 hrs by plate reader based Alamar blue assay; format: functional, organism-based
Leishmania infantum [6] = test: Antileishmanial activity against late log/stationary phase of promastigote stage of Leishmania infantum MHOM/TN/80/IPT1 assessed as parasite growth inhibition after 72 hrs by plate reader based Alamar blue assay; format: functional, organism-based; details: MHOM/TN/80/IPT1, 72 h
Leishmania donovani [7] = test: Antileishmanial activity against amastigote stage of Leishmania donovani MHOM/NP/02/BPK282/0c14 infected in human THP1 cells assessed as parasite growth inhibition after 72 hrs by Giemsa staining-based light microscopic analysis; format: functional, organism-based; details: MHOM/NP/02/BPK282/0c14, THP-1, 72 h
[8] = Selectivity index, ratio of CC50 for African green monkey Vero cells to IC50 for Leishmania donovani MHOM/NP/02/BPK282/0c14; format: toxicity; details: for selectivity ratio: Vero cells, read-out: Ratio CC50/IC50
[9] = (§1) Cytotoxicity against African green monkey Vero cells after 72 hrs by plate reader based Alamar blue assay; format: cell-based; details: chlorocebus sabaeus, Vero cells
Leishmania tropica = test: Antileishmanial activity against late log/stationary phase of promastigote stage of Leishmania tropica MHOM/SU/74/K27 assessed as parasite growth inhibition after 72 hrs by plate reader based Alamar blue assay; format: functional, organism-based; details: MHOM/SU/74/K27, 72 h
Vero = test: as §1; format: cell-based; details: chlorocebus sabaeus, vero, 72 h
Leishmania donovani [10] = test: Antileishmanial activity against promastigote stage of Leishmania donovani MHOM/IN/83/AG83 assessed as inhibition of parasite viability after 48 hrs by MTS assay; format: functional, organism-based; details: MHOM/IN/83/AG83, 48 h
Leishmania donovani [11] = test: Antileishmanial activity against promastigote stage of Leishmania donovani assessed as parasite growth inhibition after 72 hrs by resazurin dye based assay; format: functional, organism-based
Leishmania donovani [12] = test: Antileishmanial activity against promastigote stage of Leishmania donovani NLB-065 assessed as parasite growth inhibition after 72 hrs by microscopic analysis; format: functional, organism-based; details: NLB-065, 72 h
[13] = Leishmania donovani, MHOM/NP/02/BPK282/0c14, 72 h

| Structure (SMILES) | IC50 (Leishmania donovani [3]; [13]) [µM] | selectivity ratio [8] | CC50 at 72 h [9] [µM] | further results |
| --- | --- | --- | --- | --- |
| O=C1CCC2(CC1)OOC1(O2)C2CC3CC(C2)CC1C3 (centres undefined) |  |  |  | IC50 (Leishmania infantum [1]): 79.8 µM; IC50 (Leishmania infantum [2]): 9.35 µM |
| COC(=O)C1CC(c2ccccc2)(c2ccccc2)OOC1(C)OC (centres undefined) | > 40 |  |  |  |
| C=CCO[C@@]1(C(F)(F)F)O[C@@H]2O[C@@]3(C)C[C@H]4[C@H](C)CC[C@@H](C1=C)[C@@]24OO3 |  |  |  | IC50 (Leishmania donovani [4]): 5.5 to 12.4 µM |
| C=CCO[C@@]1(C(F)(F)F)O[C@@H]2O[C@@]3(C)C[C@H]4[C@H](C)CC[C@@H]([C@H]1C)[C@@]24OO3 |  |  |  | IC50 (Leishmania donovani [4]): 1.6 to 6.25 µM |
| CCCCC1(O)OOC(c2ccccc2)(c2ccccc2)CC1C(=O)OC (centres undefined) |  |  |  | solubility [5]: Insoluble |
| C[C@@H]1CC[C@H]2[C@@H](C)[C@](OO)(C(F)(F)F)O[C@@H]3O[C@@]4(C)C[C@@H]1[C@]32OO4 |  |  |  | IC50 (Leishmania donovani [4]): 2.5 to 12.5 µM |
| COC1(C)OOC(c2ccccc2)(c2ccccc2)CC1CO (centres undefined) | > 40 |  |  |  |
| COc1ccc(N[C@@]2(C(F)(F)F)O[C@@H]3O[C@@]4(C)C[C@H]5[C@H](C)CC[C@@H]([C@H]2C)[C@@]35OO4)cc1 |  |  |  | IC50 (Leishmania donovani [4]): 0.38 to 1.5 µM |
| COC(=O)C1CC(c2ccccc2)(c2ccccc2)OOC1(C)O (centres undefined) | > 40 |  |  |  |
| NCC1CC[C@]2(CC1)OO[C@]1(O2)C2CC3CC(C2)CC1C3 (some centres undefined) |  |  |  | IC50 (Leishmania infantum [1]): 108 µM; IC50 (Leishmania infantum [2]): 3.51 µM |
| CCCCC1(CCCC)C[C@@H](COCc2cn(CC(O)(Cn3cncn3)c3ccc(F)cc3F)nn2)[C@@](C)(OC)OO1 (mixture of isomers) | 16 | 12.2 | 195 | IC50 (Leishmania major): 38.4 µM; IC50 (Leishmania infantum [6]): 12 µM; IC50 (Leishmania donovani [7]): 13 µM; IC50 (Leishmania tropica): 38 µM |
| CO[C@@]1(C)OOC2(CC[C@H]3C[C@@H]2C3(C)C)C[C@H]1CNCCCn1ccnc1 (mixture of isomers) | 16.3 | 16.8 | 274 | IC50 (Leishmania major): 15.5 µM; IC50 (Leishmania infantum [6]): 6 µM; IC50 (Leishmania donovani [7]): 23.5 µM; IC50 (Leishmania tropica): 35 µM |
| CO[C@]1(C)OOC2(CC[C@H]3C[C@@H]2C3(C)C)C[C@H]1CNCCCn1ccnc1 (mixture of isomers; form 1) |  | 18.3 | 300 | IC50 (Leishmania donovani [3]): 16.4 µM |
| CO[C@]1(C)OOC2(CC[C@H]3C[C@@H]2C3(C)C)C[C@H]1CNCCCn1ccnc1 (mixture of isomers; form 2) |  |  |  | IC50 (Leishmania major): 25 µM; IC50 (Leishmania infantum [6]): 5 µM; IC50 (Leishmania donovani [7]): 9.7 µM; Ratio CC50/IC50 ([8]; vero): 34.6; IC50 (Leishmania donovani [3]): 8 µM; CC50 (Vero): 276 µM; IC50 (Leishmania tropica): 24 µM |
| CO[C@@]1(C)OOC(C)(C)C[C@H]1COCc1cn(CCC[P+](c2ccccc2)(c2ccccc2)c2ccccc2)nn1 (racemic) | > 40 |  |  |  |
| CCCCC1(CCCC)C[C@@H](C(=O)OC)[C@@](C)(O)OO1 (racemic) | > 40 |  |  |  |
| CCCCC1(CCCC)C[C@@H](CO)[C@](C)(OC)OO1 (racemic) | > 40 |  |  |  |
| CCCC[C@]1(OC)OOC(C)(C)C[C@H]1CNCCCn1ccnc1 (racemic) | > 40 |  |  |  |
| CCCCC1(CCCC)C[C@@H](CNCCCn2cncn2)[C@@](C)(OC)OO1 (racemic) | > 40 |  |  |  |
| CO[C@@]1(C)OOC(C)(C)C[C@H]1CNCCCn1ccnc1 (racemic) | > 40 |  |  |  |
| CO[C@@]1(C)OOC(c2ccccc2)(c2ccccc2)C[C@H]1CNCCCn1ccnc1 (racemic) | 7.5 | 6.7 | 50 |  |

| Structure (SMILES) | IC50 (Leishmania donovani [3]; [13]) [µM] | selectivity ratio [8] | CC50 at 72 h [9] [µM] | further results |
| --- | --- | --- | --- | --- |
| CCCCC1(CCCC)C[C@@H](CO)[C@@](C)(OC)OO1 (racemic) | > 40 |  |  |  |
| CCCCC1(CCCC)C[C@@H](C(=O)OC)[C@](C)(OC)OO1 (racemic) | > 40 |  |  |  |
| CCCCC1(CCCC)C[C@@H](CNCCCn2ccnc2)[C@@](CCCC)(OC)OO1 (racemic) | 6.2 | 5.2 | 32.5 |  |
| CO[C@@]1(C)OOC(c2ccccc2)(c2ccccc2)C[C@H]1COCc1cn(CCC[P+](c2ccccc2)(c2ccccc2)c2ccccc2)nn1 (racemic) | 13.8 | 24.3 | 280 | IC50 (Leishmania major): 2.6 µM; IC50 (Leishmania infantum [6]): 10 µM; IC50 (Leishmania donovani [7]): 16.5 µM; IC50 (Leishmania tropica): 6 µM |
| CCCCC1(CCCC)C[C@@H](CNCCCNc2ccnc3cc(Cl)ccc23)[C@@](C)(OC)OO1 (racemic) | 1.6 | 2.5 | 4 |  |
| CCCC[C@]1(OC)OOC(c2ccccc2)(c2ccccc2)C[C@H]1CNCCCn1ccnc1 (racemic) | 4.2 | 2.3 | 9.5 |  |
| CO[C@@]1(C)OOC(c2ccc(F)cc2)(c2ccc(F)cc2)C[C@H]1CNCCCn1ccnc1 (racemic) | 12 | 7.8 | 93.6 |  |
| CCCCC1(CCCC)C[C@@H](C(=O)OC)[C@@](C)(OC)OO1 (racemic) | > 40 |  |  |  |
| CCCCC1(CCCC)C[C@@H](CNCCCn2ccnc2)[C@@](C)(OC)OO1 (racemic) | 7.5 | 13.5 | 74.5 | IC50 (Leishmania major): 11.8 µM; IC50 (Leishmania infantum [6]): 3 µM; IC50 (Leishmania donovani [7]): 12.2 µM; IC50 (Leishmania tropica): 8.9 µM |
| CCCCC1(CCCC)C[C@@H](CNCCCn2ccnc2)[C@](C)(OC)OO1 (racemic) | 5.2 | 35 | 140 | IC50 (Leishmania major): 3.2 µM; IC50 (Leishmania infantum [6]): 2.5 µM; IC50 (Leishmania donovani [7]): 10.1 µM; IC50 (Leishmania tropica): 3 µM |
| CCCCC1(CCCC)C[C@@H](COCc2cn(CCC[P+](c3ccccc3)(c3ccccc3)c3ccccc3)nn2)[C@](C)(OC)OO1 (racemic) | 40 | 5 | 200 |  |
| CCCCC1(CCCC)C[C@@H](COCc2cn(CCC[P+](c3ccccc3)(c3ccccc3)c3ccccc3)nn2)[C@@](C)(OC)OO1 (racemic) | 15.5 | 6.6 | 102 |  |
| C[C@@H]1[C@H](O)[C@@H](C)/C=C/C=C/C=C/C=C/C=C/C=C/C=C/[C@H](O[C@@H]2O[C@H](C)[C@@H](O)[C@H](N)[C@@H]2O)C[C@@H]2O[C@](O)(C[C@@H](O)C[C@@H](O)[C@H](O)CC[C@@H](O)C[C@@H](O)CC(=O)O[C@H]1C)C[C@H](O)[C@H]2C(=O)O [AMPHOTERICIN B] | 0.3 | 667 |  | IC50 (Leishmania donovani [4]): 0.03 to 2.8 µM |
| C[C@@H]1CC[C@H]2[C@@H](C)C(=O)O[C@@H]3O[C@@]4(C)CC[C@@H]1[C@]32OO4 [ARTEMISININ] | > 40 |  |  | IC50 (Leishmania donovani [10]): 100 to 160 µM |
| C[C@H]1[C@@H](O)O[C@@H]2O[C@@]3(C)CC[C@H]4[C@H](C)CC[C@@H]1[C@@]24OO3 [ARTENIMOL] |  |  |  | IC50 (Leishmania donovani [4]): 4.1 to 20.2 µM |
| OC(Cn1cncn1)(Cn1cncn1)c1ccc(F)cc1F [FLUCONAZOLE] | > 40 |  |  |  |
| CCCCCCCCCCCCCCCCOP(=O)([O-])OCC[N+](C)(C)C [MILTEFOSINE] |  |  |  | IC50 (Leishmania donovani [4]): 1.9 to 68.1 µM |
| NC[C@@H]1O[C@H](O[C@H]2[C@@H](O)[C@H](O[C@@H]3[C@@H](O)[C@H](N)C[C@H](N)[C@H]3O[C@H]3O[C@H](CO)[C@@H](O)[C@H](O)[C@H]3N)O[C@@H]2CO)[C@H](N)[C@@H](O)[C@@H]1O [PAROMOMYCIN] |  |  |  | IC50 (Leishmania donovani [11]): 19.7 to 28.1 µM |
| CCN(CC)CCCCCCNc1cc(OC)cc2c(C)ccnc12 [SITAMAQUINE] |  |  |  | IC50 (Leishmania donovani [4]): 36.1 to 179 µM |
| C[C@H]1[C@H](OC(=O)CCC(=O)O)O[C@@H]2O[C@@]3(C)CC[C@H]4[C@H](C)CC[C@@H]1[C@@]24OO3 [SODIUM ARESUNATE] | > 40 |  |  | IC50 (Leishmania donovani [12]): 12.1 µM |
